# Where two headings read alike, the source gives them in different places.
# Legend:
# [1] = test system: HT-29 human colon cancer cells; assay: Cytotoxicity assay; format: cell-based; conditions: HT-29 cells, three days
# [2] = biological target: T1, chymotrypsin-like proteasome activity (Homo sapiens, UniProt P28074); assay: Proteasome inhibition assay; format: biochemical
# T1 sequence (P28074 60-263): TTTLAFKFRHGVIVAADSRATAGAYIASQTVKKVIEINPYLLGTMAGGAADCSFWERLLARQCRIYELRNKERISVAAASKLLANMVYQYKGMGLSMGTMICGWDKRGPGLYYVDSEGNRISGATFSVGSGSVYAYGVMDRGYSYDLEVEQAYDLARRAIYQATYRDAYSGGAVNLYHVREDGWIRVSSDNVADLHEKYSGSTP
# [3] = test system: LNCaP, HT-29, MCF-7 and MDA-MB 435 human cancer cells; assay: In vivo hollow fiber assay; conditions: highest dose tested (20 mg/kg), mice, intraperitoneal, all cell lines
# human SPC-A1 cell [4] = conditions: cited from earlier work
# human SPC-A1 cell [5] = conditions: cited from earlier work; remark: listed apart in the source
# [6] = read-out: Proteasome Inhibition IC50, Suc-LLVY-AMC 10 μM
"IC50 [2, 6] [µM]",Compound,Cytotoxicity ED50 [1] [µM],other results
–,"CC1(C)Oc2c(cc3c(=O)c4c(O)cc(O)cc4oc3c2O)[C@H](O)[C@H]1O [Compound 2, (3R,4S)-3,4,7,9,12-pentahydroxy-2,2-dimethyl-3,4-dihydropyrano[3,2-b]xanthen-6(2H)-one]",>10,–
> 10,"CC(C)=CCc1c(O)c(CC=C(C)C)c2c(c1O)C(=O)C1=C[C@H]3C[C@@H]4C(C)(C)O[C@@](C/C=C(/C)C(=O)O)(C3=O)[C@@]14O2 [Compound 4, isogaudichaudiic acid]",3.2,–
> 10,"C=C(C)C(O)Cc1c2c(c(O)c3c1O[C@]14C(=C[C@H]5C[C@@H]1C(C)(C)O[C@@]4(C/C=C(\C)C(=O)O)C5=O)C3=O)C=CC(C)(C)O2 (some centres unmarked) [Compound 5, isogaudichaudiic acid E]",2.6,–
–,"CC(C)=CCc1c2c(c(O)c3c1O[C@]14C(=C[C@H]5C[C@@H]1C(C)(C)O[C@@]4(C/C=C(/C)C(=O)O)C5=O)C3=O)CC(O)C(C)(C)O2 (stereo partly drawn) [Compound 6, (5R,7S,10aS,27S)-11,12-dihydro-12-hydroxymorellic acid]",2.9,–
–,"O=C1c2c(O)cc(O)cc2O[C@H](c2ccc(O)cc2)[C@H]1c1c(O)cc(O)c2c(=O)cc(-c3ccc(O)c(O)c3)oc12 [Compound 8, morelloflavone]",>10,IC50 [2]: 1.3 µM
4.4,"O=C1c2c(O)cc(O)cc2O[C@@H](c2ccc(O)cc2)[C@@H]1c1c(O)cc(O)c2c(=O)cc(-c3ccc(O)cc3)oc12 [Compound 9, talbotaflavone]",–,–
–,CC(C)=CCC[C@]1(C)C=Cc2c(O)c3c(c(CC=C(C)C)c2O1)O[C@]12C(=C[C@@H]4C[C@H]1C(C)(C)O[C@@]2(C/C=C(/C)C(=O)O)C4=O)C3=O [gambogic acid],–,Inhibition of SPC-A1 cell growth in vitro (human SPC-A1 cell [4]): inhibited; Inhibition of SPC-A1 cell growth in vivo (human SPC-A1 cell [5]): inhibited
–,isogaudichaudiic acid B [Compound 7],>10,–

Compound,"IC50 [2, 6] [µM]",Cytotoxicity ED50 [1] [µM],other results
"CO[C@H]1[C@H]2C(=O)c3c(O)c4c(c(CC=C(C)C)c3O[C@@]23[C@@H]2C[C@H]1C(=O)[C@]3(C/C=C(/C)C(=O)O)OC2(C)C)OC(C)(C)C=C4 [Compound 3, isomoreollic acid]",> 10,1.9,–
"CC(C)=CCc1c2c(c(O)c3c1O[C@]14C(=C[C@@H]5C[C@H]1C(C)(C)O[C@@]4(C/C=C(/C)C(=O)O)C5=O)C3=O)C=CC(C)(C)O2 [Compound 10, morellic acid]",> 10,0.36,Activity in in vivo hollow fiber assay [3]: inactive

# Reference: PMC2923493 (Tetrahedron, 2010)
